We go through one compound from patent US20140228423A1, “BIOMARKERS AND THERAPY FOR CANCER” (BAYLOR COLLEGE OF MEDICINE, priority 2011, published 2014).

Data set [1] deals with OVCAR8 cells. Description: Cell viability of OVCAR8 cells after 48 hours with drug (dose response). Format: cell-based. As to conditions: Homo sapiens, OVCAR-8; 48-hr treatment of OVCAR8 cells. Here is the method:
FIG. 10. Drug and miRNA mimic effects on ovarian cancer cell viability (A-C) and proliferation (D). OVCAR8 cancer cells were incubated for 48 hours in the presence of YM155 (A) or everolimus (B) and assayed for cell viability. C. Three independent PTEN/DICER DKO mouse serous carcinoma cell lines were transfected with miRNA control (miR-Ctrl) or miR-34c mimics and assayed for cell viability 48 hours later. D. OVCAR8 cells were infected with lentivirus expressing miR-Ctrl or miR-34c and assayed for cell number. *, P<0.05; **, P<0.005; ***, P<0.0005
FIG. 17. Dose response curve of YM155 after 48-hr treatment of OVCAR8 cells.
Well-known as an apoptosis inhibitor, survivin has been identified to contribute to nearly every aspect of cancer from onset to outcome (Altieri, 2008; Martinelli et al., 2006). Nearly all serous, endometrioid, and poorly-differentiated ovarian cancers express surviving (Cohen et al., 2003), the levels of survivin correlate with poor prognostic parameters (Cohen et al., 2003), high levels of survivin are associated with taxol/platinum resistance (Zaffaroni et al., 2002), and women with PTEN-negative/survivin-positive ovarian cancers have the worst prognosis (Sui et al., 2006). […] Based on these findings, the inventors treated mouse serous cancer cell lines and the human serous cancer line OVCAR8 with YM155 or everolimus, an inhibitor of mTOR (FIG. 5A, B). […]

Data set [2] deals with OVCAR8 cells. In words: QPCR follow-up of YM155-treated versus DMSO-treated OVCAR8 cells. Type of data set: cell-based, human. As to conditions: OVCAR8, 6 hours. The text has this: (§1) Using Illumina gene expression analysis and QPCR followup, YM155-treated cells were compared with DMSO vehicle treated cells. […] DDIT3 (a.k.a., CHOP) is a proapoptotic protein whose induction is a hallmark of ER stress induced apoptosis (Wang et al., 2010). […] HSP72 has strong cytoprotective effect by functioning as a molecular chaperone in cytosolic protein folding, transport, and degradation (Morimoto et al., 1997; Tavaria et al., 1996), and as an inhibitor of cellular apoptosis (Gamido et al., 2003; Samali and Orrenius, 1998). In addition, HSP72 interacts with ER stress sensor protein IRE1a thereby enhancing IREla-XBP1 signaling at the ER and promoting adaptation to ER stress and cell survival (Gupta et al., 2010). HSP72 is normally expressed at low levels, and is induced upon exposure to environmental stress to exert its cytoprotective effect. However, in cancer, HSP72 is constitutively expressed in many cancer cell lines and biopsies, and its expression correlates with poor prognosis (Gabai et al., 2009). HSP72 provides a selective advantage to cancer cells by suppressing default senescence via p53-dependent and p53-independent pathways (Yaglom et al., 2007). Thus, YM155 acutely suppresses HSPA1A and HSPA1B, indicating a novel mechanism which may contribute directly to the anti-cancer effect of YM155.

In data set [3] the test system is OVCAR8 cells. In words: Illumina gene expression analysis of YM155-treated versus DMSO-treated OVCAR8 cells. Format: cell-based, human. The following applies: OVCAR8, 6 hours. Here is the method:
as §1, with “To characterize the early targets of YM155 in cancer cells, the ovarian cancer cell line OVCAR8 was treated acutely for 6 hours with YM155 (10 nM). Using” for “Using”

Data set [4] relates to OVCAR8 cells. In words: High-throughput screen of Prestwick Chemical Library with or without YM155. As to conditions: Homo sapiens, OVCAR-8, read-out: Cell viability.
Experimental: High-throughput screen for drugs that synergize with YM155. […] Digitonin (0.8 mg/ml) was used as a positive control for ˜100% cell death. […] The relative synergy for each drug was then calculated by subtracting measured cell survival of combinatorial treatment from the calculated c value.
To identify additional small molecules that synergize with YM155, a small library screen was performed.
In data set [5] the test system is ovarian cancer cell lines and a pancreatic cancer cell line. In words: Cell Titer Glo viability with YM155, parthenolide or both for 48 hours. As to conditions: single agents at levels giving about half inhibition, and their combination. (In general: ATP-based viability assays read luminescence as a measure of living cells.)

As a reminder, the GI50 is the concentration giving 50% growth inhibition. By viability is commonly meant a read-out of living cells in per cent, often relative to untreated cells. `COCCn1c2c([n+](Cc3cnccn3)c1C)C(=O)c1ccccc1C2=O` [YM155, sepantronium bromide]: the GI50 in the data set on OVCAR8 cells [1] came out at 4.6 nM. Further, in the data set on OVCAR8 cells [2], the “Fold Change YM155 (30 nM)/DMSO (QPCR): ATF3” value is 11.1, the “Fold Change YM155 (30 nM)/DMSO (QPCR): BIRC5 (Survivin)” value is −1.1, the “Fold Change YM155 (30 nM)/DMSO (QPCR): DDIT3” value is 3.6 and the “Fold Change YM155 (30 nM)/DMSO (QPCR): DDIT4” value is reported as 10.6. Moreover, in the data set with OVCAR8 cells [2], the “Fold Change YM155 (30 nM)/DMSO (QPCR): HERPUD1” value is 3.1, the “Fold Change YM155 (30 nM)/DMSO (QPCR): HSPA1A” value is −7.5, the “Fold Change YM155 (30 nM)/DMSO (QPCR): HSPA1B” value is −4.4 and the “Fold Change YM155 (30 nM)/DMSO (QPCR): TRIB3” value was 2.0. In the data set on OVCAR8 cells [3], the “Fold Change YM155 (10 nM)/DMSO (Array): ATF3” value came out at 2.2, the “Fold Change YM155 (10 nM)/DMSO (Array): BIRC5 (Survivin)” value is −1.3, the “Fold Change YM155 (10 nM)/DMSO (Array): DDIT3” value is reported as 3.8 and the “Fold Change YM155 (10 nM)/DMSO (Array): DDIT4” value is 5.6. In addition, in the data set with OVCAR8 cells [3], the “Fold Change YM155 (10 nM)/DMSO (Array): HERPUD1” value was determined as 2.2, the “Fold Change YM155 (10 nM)/DMSO (Array): HSPA1A” value is −2.6, the “Fold Change YM155 (10 nM)/DMSO (Array): HSPA1B” value is −2.6 and the “Fold Change YM155 (10 nM)/DMSO (Array): TRIB3” value came to 2.6. For the same compound, the viability at 0.003 µM in the data set on OVCAR8 cells [4] was determined as 64.3%. Moreover, the “inhibition of cancer cell viability” value in data set [5] is about 50%.
